Literature values in patent publication US10398729B2, “Method for treating Alzheimer's disease” (priority 2012, dated 2019).

Columns and labels:
[1] = tested on: patients with mild-to-moderate AD
[2] = tested on: primary human fibroblast cells (IMR-90); conditions: IMR-90 cells in vitro
hepatoma cells SMMC-7721 = conditions: 20.0 μmol/L chromic chloride
[3] = tested on: elderly adults with early memory decline
brain functions = conditions: prolonged intranasal administration

Compound: C=C1/C(=C\C=C2/CCC[C@]3(C)[C@@H]([C@H](C)CCCC(C)(C)O)CC[C@@H]23)C[C@@H](O)C[C@@H]1O [1,25D3, 1alpha,25-dihydroxyvitamin D3]
- apoptosis (macrophages): protecting against apoptosis
- Abeta phagocytosis and clearance (macrophages; studied in combination with curcuminoids): strongly stimulated

Compound: CCCCCCCC(=O)OCC(COC(=O)CCCCCCC)OC(=O)CCCCCCC [AC-1202]
- memory and cognition [1]: improves memory and cognition

Compound: CC(C)(C)NO [N-tert-butylhydroxylamine (NtBHA), N-tert-butylhydroxylamine]
- senescence-related and H2O2-stimulated iron accumulation [2]: attenuated

Compound: [Cl][Cr]([Cl])[Cl] [chromic chloride]
- telomere lengths (hepatoma cells SMMC-7721): remarkably extended the telomere lengths

Compound: chromium picolinate
- cognitive performance and brain function [3]: can improve cognitive performance and brain function

Compound: insulin
- memory and mood (brain functions): improving memory and mood
- systemic side effects (brain functions): absence of systemic side effects
